# Experimental data reported in paper PMC8886574, “Synthesis, physicochemical characterization and neuroprotective evaluation of novel 1-hydroxypyrazin-2(1H)-one iron chelators in an in vitro cell model of Parkinson's disease” (Dalton Transactions (Cambridge, England : 2003), 2022).
# Read-outs that look alike come from different tables or passages of the source.
# How the values were obtained:
# [1] = cited from earlier work
# [2] = tested on: SH-SY5Y neuroblastoma cells; set-up: method as in earlier work; details: studied previously ref 27; cited from earlier work
# [3] = Trolox equivalent antioxidant capacity (TEAC) assay, ABTS radical cation decolorization; type: biochemical; details: for time to complete reaction with ABTS radical cation: TEAC assay
# Source text: 2,2′-Azinobis-(3-ethylbenzothiazoline)-6-sulfonic acid radical cation (ABTS˙^+) is a blue/green chromophore that absorbs at 745 nm and was produced through the reaction between ABTS and potassium persulfate. Addition of antioxidants to the radical cation reduces it to the non-absorbing ABTS to an extent and on a time-scale depending on its antioxidant activity, the concentration of the antioxidant and the duration of the reaction. […] The TEAC value for a given ligand at a given time point was obtained by dividing the corresponding slope of the ligand by the slope of Trolox (Table 3 and Fig. S21 ^†).
# TEAC values were calculated according to an ABTS radical cation decolorization assay. 2,2′-Azinobis-(3-ethylbenzothiazoline-6-sulphonic acid diammonium salt (ABTS, 7 mM) was dissolved in water (10 mL) and exposed to potassium persulphate (2.45 mM). After a 16-hour incubation period (dark, room temperature), the resulting solution was diluted with HPLC-grade methanol such that the absorbance of the solution at 745 nm was around 0.7. ABTS˙^+ solution (2 mL) was loaded into a cuvette and the absorbance was recorded at 745 nm. 50 μL of various concentrations of the given ligand solution were then added, the cuvette was vigorously shaken and the absorbance was measured after 1, 3 and 6 minutes. Data were plotted such that for each time point a linear system of percentage of inhibition of ABTS˙^+versus concentration of ligand was obtained. The slope of each plot was normalised with respect to that of Trolox to give the Trolox equivalence value for each time point.
# [4] = DPPH radical scavenging assay; type: biochemical
# [5] = set-up: method as in PMID 32078022; details: cited from earlier work
# [6] = cited from earlier work; remark: listed apart in the source
# [7] = tested on: SH-SY5Y neuroblastoma cells; experiment: Neuroprotection against 6-OHDA insult, MTT cell viability assay; type: cell-based, Human; details: for neuroprotection against 6-OHDA (in words): 0–300 μM, pre-incubation 1 hour, 6-OHDA 24 hours; for % 6-OHDA Rescue (at 100 µM): 100 µM dose of the compound; for cell viability restored: human, 24 h
# Method: We next evaluated the neuroprotective ability of these compounds when cells are exposed to 6-hydroxydopamine (6-OHDA), a neurotoxin that emulates various pathological aspects of PD in dopaminergic neurons, in both in vitro and in vivo disease models, including mitochondrial impairment and cell death.[26c,28,46] […] Cells were pre-treated with the compound of interest at different concentrations for 1 hour prior to treatment with 6-OHDA ([…]) for a further 24 hours.
# Human SH-SY5Y neuroblastoma cells (ATCC® CRL-2266™) were plated at 20 000 cells per well in 96-well microplates, and left to adhere overnight to the well surface, in cell culture media composed of 50% advanced minimum essential medium (MEM), 50% Ham's F12 medium, 1% L-glutamine, that was supplemented with 2% fetal bovine serum (FBS). All media components were obtained from Thermo Fisher Scientific (Gibco™).
# Each well's media was then replaced with 100 μL per well of serum free media, containing ascending concentrations of the novel compounds that ranged from 0–300 μM. Cells were pre-incubated with the compounds for 1 hour at 37 °C, 5% CO2, before exposure to 50 μM 6-OHDA (apart from the wells containing non-toxin treated control cells) for a further 24 hours. Just before application to cells, a 10 mM 6-OHDA hydrochloride (Sigma-Aldrich) stock concentration was prepared, by dissolving the powder in 1 mL distilled water containing 0.1% ascorbic acid (Sigma-Aldrich); the solution was protected against light and kept on ice until use.
# After a further 24 hours incubation period at 37 °C in a 5% CO2 environment, cell viability was measured using the tetrazolium dye, 3-(4,5-dimethylthiazol-2-yl)-2,5-diphenyltetrazolium bromide (MTT). For this colorimetric assay, 11 μL of MTT (5 mg mL^−1) was added to the 100 μL media per well, and then incubated for 3 hours at 37 °C, 5%, CO2. For lysing the cells, an equal volume of solubilizing solution (dimethyl sulfoxide (DMSO)) was added to each well and mixed thoroughly. Absorption was measured at a wavelength of 570 nm by using a scanning multiwell spectrophotometer (Sunrise Tecan, Durham, NC, USA). Cell viability was calculated as a percentage compared to the untreated (not receiving toxin or drug compound) control wells. Data is expressed as the means ± the SEM of three independent experiments. Statistical analyses of the MTT-derived cell viability data were performed using Prism software (v3, GraphPad, San Diego, CA, USA) and using a one-way ANOVA, followed by a Dunnett's post-hoc test for multiple comparisons. Results were considered significant at P < 0.05.
# [8] = Protonation constants (log K) of ligands by UV-visible spectrophotometric titration vs. pH; type: physicochemical; details: for log K LH2 / log K LH: Solvent H2O; for log K LH: I = 0.1 M (NaClO4), T = 25.0 °C; for pKa: value used as input for BBB score (Tables S1–S6)
# Method: For ligand 10a, protonation constants of the ligand were studied in both media while complexation studies were carried out only in the mixed solvent for solubility reasons.
# [9] = Fe^3+ complexation: stability constants (log β) and sequestering ability (pL0.5) by spectrophotometric titration; details: solvent H2O; for log β FeL / log β FeL2 / log β FeL3: Fe^3+ complex; for pL0.5: towards Fe^3+ at pH 7.4, [Fe^3+] = 10^−9 M
# [10] = Distribution coefficients (log D7.4), Shake Flask method, n-octanol / HEPES buffer pH 7.4; type: physicochemical; details: free ligand, n-octanol / HEPES buffered aqueous phase pH 7.4
# Method: The method is based on the principle that the solute's distribution is determined as a ratio of concentrations of the test compound in a solution mixture, consisting of two immiscible phases, namely n-octanol and an aqueous buffer (HEPES buffer, pH 7.4).
# [11] = Solubility as observed during the studies (in words); type: physicochemical; details: for solubility in the aqueous phase (in words): HEPES-buffered aqueous phase pH 7.4 of log D7.4 determination, ligands and their Fe^3+ complexes
# [12] = value used as input for BBB score (Tables S7–S9), previously studied ligands ref 28
smiles,measurement,setting,value
"CC(=O)N(O)CCCCCNC(=O)CCC(=O)N(O)CCCCCNC(=O)CCC(=O)N(O)CCCCCN [DFO, desferrioxamine, reference compound]",log β,"[1]; iron affinity ref 57a,b",30.5
"Cc1c(O)c(=O)ccn1C [DFP 1, deferiprone, reference compound]",% 6-OHDA Rescue (at 100 µM),[2],117%
same,time to complete reaction with ABTS radical cation,[3],≤ 1 min
same,Antioxidant activity as TEAC,[3]; t = 1 min,∼0.7 mM
same,Antioxidant activity as TEAC,[3]; t = 3 min,∼0.7 mM
same,Antioxidant activity as TEAC,[3]; t = 6 min,∼0.7 mM
same,EC50,"[4]; methanol, steady-state",8 µg/mL
same,EC50,[4]; read-out: EC50,58 µM
O=c1cccc(CO)n1O [Ligand 2],log D7.4 of Fe^3+ complex,[5]; Fe^3+ complex of the ligand ref 28,−0.18
same,log D7.4,[5]; free ligand ref 28,−1.71
same,% 6-OHDA Rescue (at 100 µM),[2],93%
same,pKa,[6]; [12],6.02
O=C(O)c1cccn(O)c1=O [Ligand 3],% 6-OHDA Rescue (at 100 µM),[2],84%
same,pKa,[6]; [12],3.7
"NCCc1cc(O)c(O)cc1O [Ligand 6-OHDA, 6-hydroxydopamine, reference compound]",decrease of cell viability,"[7]; toxin only, 24 hours",approximately 50%
"Cc1ncc(=O)n(O)c1C [Ligand 6a, 1-Hydroxy-5,6-dimethylpyrazin-2(1H)-one]",neuroprotection against 6-OHDA (in words),[7],fully rescued
same,% 6-OHDA Rescue (at 100 µM),[7],100%
same,cell viability restored,[7],≥ 89%
same,Antioxidant activity as TEAC,[3]; t = 1 min,0.08 mM
same,Antioxidant activity as TEAC,[3]; t = 3 min,0.16 mM
same,Antioxidant activity as TEAC,[3]; t = 6 min,0.22 mM
same,log β3,"[1]; 1 : 3 Fe^3+ complex, different experimental conditions ref 35",20.2
same,log K LH2,[8],0.04(2)
same,log K LH,[8],4.58(4)
same,pKa,[8],4.58
same,log β FeL,[9],10.38(6)
same,log β FeL2,[9],18.1(4)
same,log β FeL3,[9],23.85(1)
same,pL0.5,[9],4.36
same,pKa,[6]; published previously ref 35,4.7
same,logD,[10],-1.73
"Cc1nc(Cc2ccccc2)c(=O)n(O)c1C [Ligand 6c, 1-Hydroxy-3-benzyl-5,6-dimethylpyrazin-2(1H)-one]",neuroprotection against 6-OHDA (in words),[7],partially prevented
same,% 6-OHDA Rescue (at 100 µM),[7],89%
same,cell viability restored,[7],≥ 89%
same,Antioxidant activity as TEAC,[3]; t = 1 min,0.21 mM
same,Antioxidant activity as TEAC,[3]; t = 3 min,0.31 mM
same,Antioxidant activity as TEAC,[3]; t = 6 min,0.40 mM
same,pKa,[8],5.53
same,solubility in the aqueous phase (in words),[11],low solubilities
same,solubility in water (in words),[11],very low solubility in water
"Cc1nc(Cc2ccc(O)cc2)c(=O)n(O)c1C [Ligand 6d, 1-Hydroxy-3-(4-hydroxybenzyl)-5,6-dimethylpyrazin-2(1H)-one]",% 6-OHDA Rescue (at 100 µM),[7],64%
same,Antioxidant activity as TEAC,[3]; t = 1 min,0.41 mM
same,Antioxidant activity as TEAC,[3]; t = 3 min,0.55 mM
same,Antioxidant activity as TEAC,[3]; t = 6 min,0.64 mM
same,pKa,[8],5.96
same,solubility in the aqueous phase (in words),[11],low solubilities
same,solubility in water (in words),[11],very low solubility in water
"O=c1cncc(-c2ccccc2)n1O [Ligand 10a, 1-Hydroxy-6-phenylpyrazin-2(1H)-one]",neuroprotection against 6-OHDA (in words),[7],only marginal protection
same,% 6-OHDA Rescue (at 100 µM),[7],63%
same,time to complete reaction with ABTS radical cation,[3],~3 min
same,Antioxidant activity as TEAC,[3]; t = 1 min,0.66 mM
same,Antioxidant activity as TEAC,[3]; t = 3 min,0.69 mM
same,Antioxidant activity as TEAC,[3]; t = 6 min,0.70 mM
same,log K LH2,[8],∼−0.6
same,log K LH,[8],3.18(1)
same,pKa,[8],3.18
same,solubility in water (in words),[11],very low solubility in water
same,logD,[10],-1.2
"COc1ccc(-c2cncc(=O)n2O)cc1 [Ligand 10b, 1-Hydroxy-6-(4-methoxyphenyl)-pyrazin-2(1H)-one]",melting point,,176.8 to 179 °C
same,solubility in water (in words),[11],low water solubilities
"O=c1cncc(-c2ccc(F)cc2)n1O [Ligand 10c, 1-Hydroxy-6-(4-fluorophenyl)-pyrazin-2(1H)-one]",melting point,,210.6 to 212.5 °C
same,solubility in water (in words),[11],low water solubilities
"O=c1cncc(-c2ccc(O)cc2)n1O [Ligand 10d, 1-Hydroxy-6-(4-hydroxyphenyl)-pyrazin-2(1H)-one]",neuroprotection against 6-OHDA (in words),[7],partially prevented
same,% 6-OHDA Rescue (at 100 µM),[7],76%
same,pKa,[8],4
"Cc1cncc(=O)n1O [Ligand 11a, 1-Hydroxy-6-methylpyrazin-2(1H)-one]",% 6-OHDA Rescue (at 100 µM),[7],60%
same,Antioxidant activity as TEAC,[3]; t = 1 min,0.02 mM
same,Antioxidant activity as TEAC,[3]; t = 3 min,0.03 mM
same,Antioxidant activity as TEAC,[3]; t = 6 min,0.05 mM
same,log K LH2,[8],0.2(2)
same,log K LH,[8],3.98(5)
same,pKa,[8],3.98
same,log β FeL,[9],7.83(1)
same,log β FeL2,[9],14.28(2)
same,log β FeL3,[9],20.19(4)
same,pL0.5,[9],3.13
same,logD,[10],-0.4
"O=c1cnccn1O [unsubstituted 1-hydroxypyrazin-2(1H)-one, 1-hydroxypyrazin-2(1H)-one]",pKa,[6]; published previously ref 35,4.4
